Experimental findings from patent publication US20260365663A1, “EMOPAMIL-BINDING PROTEIN INHIBITORS AND USES THEREOF” (BIOGEN MA INC., priority 2022, published 2026) are described below.

T1 sequence (Q15125 whole entry): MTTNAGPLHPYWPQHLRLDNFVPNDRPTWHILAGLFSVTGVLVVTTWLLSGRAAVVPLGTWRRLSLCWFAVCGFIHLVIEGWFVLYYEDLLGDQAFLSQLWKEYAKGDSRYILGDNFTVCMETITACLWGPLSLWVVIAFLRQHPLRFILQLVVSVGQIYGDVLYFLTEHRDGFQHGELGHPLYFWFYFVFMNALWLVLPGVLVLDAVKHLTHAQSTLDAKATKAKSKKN

One experiment has as its target T1, EBP (Homo sapiens, UniProt Q15125).
T1 construct: HEK293T cells were utilized as the source of EBP enzyme; endogenous in cells; host or cells: HEK293T
Description: EBP Functional Assay (EBP immunoaffinity LC-MS assay). The format is biochemical.
Settings: not given
The procedure:
The EBP immunoaffinity (IA) LC-MS assay measures the potency of small molecule inhibitors of EBP by quantifying their concentration-dependent changes in the enzyme's substrate and product using liquid chromatography atmospheric pressure chemical ionization multiple reaction monitoring mass spectrometry (LC-APCI MRM MS). HEK293T cells were utilized as the source of EBP enzyme. The enzyme was incubated with the small molecule inhibitors at variable concentrations for 30 min. Deuterated form of EBP substrate, zymosterol-d5 (Avanti Polar Lipids, Cat #700068P-1 mg), was then added and the plate was incubated at 37 °C for 4 h. Finally, the sterol isomers were extracted and injected to LC-APCI MRM MS. MRM transition used for the quantification for both zymosterol and dihydrolathosterol (substrate and product of EBP enzymatic reaction, respectively) is 372.3-203.2, CE 30 and DP 80 in positive ion mode. Percent conversion of the zymosterol-d5 to dehydrolathosterol-d5 was used to derive IC50 curves. Tasin-1 (1′-[(4-Methoxyphenyl)sulfonyl]-4-methyl-1,4′-bipiperidine, CAS 792927-06-1) was used as the reference small molecule inhibitor.
Percent conversion versus the compound concentration data were fit to the following 4-parameter logistic model to generate IC50 curves: […]
Consider `Cc1nn(C)c(S(=O)(=O)N2CC3(CCC(N4CCOCC4)C3)C2)c1C(F)F` (centres unmarked) [Example 38, 4-(2-((4-(Difluoromethyl)-1,3-dimethyl-1H-pyrazol-5-yl)sulfonyl)-2-azaspiro[3.4]octan-6-yl)morpholine], for which the IC50 was 100 to 500 nM. The same measure, in the same setting: as for `N#Cc1cc(F)cc(S(=O)(=O)N2CC3(CC[C@@H](N4CCOCC4)C3)C2)c1` [Example 50, (R)-3-Fluoro-5-((6-morpholino-2-azaspiro[3.4]octan-2-yl)sulfonyl)benzonitrile], the figure is 500 to 3000 nM; as for `COc1ncc(C)cc1S(=O)(=O)N1CC2(CC(N3CC4(COC4)C3)CO2)C1` (centres unmarked) [Example 22, 2-((2-Methoxy-5-methylpyridin-3-yl)sulfonyl)-7-(2-oxa-6-azaspiro[3.3]heptan-6-yl)-5-oxa-2-azaspiro[3.4]octane], 500 to 3000 nM. As to `Cc1cc(C)c(S(=O)(=O)N2CC3(CCC(N4CCOCC4)C3)C2)cn1` (centres unmarked) [Example 47, 4-(2-((4,6-Dimethylpyridin-3-yl)sulfonyl)-2-azaspiro[3.4]octan-6-yl)morpholine], the IC50 was in the range of 100 to 500 nM. Compound `N#Cc1cc(F)cc(S(=O)(=O)N2CC3(CC[C@H](N4CCOCC4)C3)C2)c1` [Example 52, (S)-3-Fluoro-5-((6-morpholino-2-azaspiro[3.4]octan-2-yl)sulfonyl)benzonitrile] registered an IC50 of 500 to 3000 nM. With `Cn1nc(C(F)(F)F)cc1S(=O)(=O)N1CC2(CC(N3CC4(CCO4)C3)C2)C1` [Example 15, 6-(2-((1-Methyl-3-(trifluoromethyl)-1H-pyrazol-5-yl)sulfonyl)-2-azaspiro[3.3]heptan-6-yl)-1-oxa-6-azaspiro[3.3]heptane], the IC50 fell in the range of 500 to 3000 nM. The same measure, in the same setting: as for `Cc1ccc(S(=O)(=O)N2CC3(CCC(N4CCOCC4)C3)C2)c(C)c1` (centres unmarked) [Example 45, 4-(2-((2,4-Dimethylphenyl)sulfonyl)-2-azaspiro[3.4]octan-6-yl)morpholine], the figure is below 100 nM.

Staying with this experiment, now noted: HEK293T cells as source of EBP enzyme; zymosterol-d5 substrate; inhibitor 30 min, then 37 °C for 4 h; percent conversion to dehydrolathosterol-d5 by LC-APCI MRM MS; read-out: EBP Functional Assay.
In the case of `Cn1nc(C(F)(F)F)cc1S(=O)(=O)N1CC2(CC[C@H](N3CCOCC3)C2)C1` [Example 51, (S)-4-(2-((1-methyl-3-(trifluoromethyl)-1H-pyrazol-5-yl)sulfonyl)-2-azaspiro[3.4]octan-6-yl)morpholine], the IC50 lay in the range of 100 to 500 nM. Still for that read-out and setting: as for `COc1ncc(C)cc1S(=O)(=O)N1CC2(CC(NC3CCC(F)(F)CC3)CO2)C1` (centres unmarked) [Example 24, N-(4,4-Difluorocyclohexyl)-2-((2-methoxy-5-methylpyridin-3-yl)sulfonyl)-5-oxa-2-azaspiro[3.4]octan-7-amine], the figure is 100 to 500 nM; as for `Cc1nc(C(F)(F)F)ncc1S(=O)(=O)N1CC2(CC(N(C)C3COC3)C2)C1` [Example 81, N-methyl-2-((4-methyl-2-(trifluoromethyl)pyrimidin-5-yl)sulfonyl)-N-(oxetan-3-yl)-2-azaspiro[3.3]heptan-6-amine], 100 to 500 nM. As for `Cc1nc(C(F)(F)F)ccc1S(=O)(=O)N1CC2(CC(N3CCOCC3)C2)C1` [Example 5, 4-(2-((2-Methyl-6-(trifluoromethyl)pyridin-3-yl)sulfonyl)-2-azaspiro[3.3]heptan-6-yl)morpholine], the IC50 lay in the range of 100 to 500 nM.

With `Cc1cc(C)c(S(=O)(=O)N2CC3(CC(N4CCOCC4)CO3)C2)c(C)c1` (centres unmarked) [Example 53, 2-(Mesitylsulfonyl)-7-morpholino-5-oxa-2-azaspiro[3.4]octane], the IC50 was 100 to 500 nM. On the same count and under the same terms, as for `CN(C1CCC(F)(F)CC1)C1COC2(C1)CN(S(=O)(=O)c1cc(C#N)ccc1F)C2` (centres unmarked) [Example 59, 3-((7-((4,4-Difluorocyclohexyl)(methyl)amino)-5-oxa-2-azaspiro[3.4]octan-2-yl)sulfonyl)-4-fluorobenzonitrile], the figure is below 100 nM; as for `COc1ccc(S(=O)(=O)N2CC3(CCC(NC4CCC(F)(F)CC4)C3)C2)c(C)n1` (centres unmarked) [Example 31, N-(4,4-Difluorocyclohexyl)-2-((6-methoxy-2-methylpyridin-3-yl)sulfonyl)-2-azaspiro[3.4]octan-6-amine], 100 to 500 nM.
